Assay results reported in US5470830A, “Motilin-like polypeptides that inhibit gastrointestinal motor activity” (Ohmeda Pharmaceutical Products Division Inc., priority 1993, dated 1995).
Where a name gives a salt, the structure may show the parent alone. Where a SMILES comes first, the peptide text is derived from it. Where no end group is shown, it is not given here. [ ]: non-standard residue; d: D form. Phe(4-I) = N[C@@H](Cc1ccc(I)cc1)C(=O)O; 2Nal = N[C@@H](Cc1ccc2ccccc2c1)C(=O)O; NMeF = CN[C@@H](Cc1ccccc1)C(=O)O; 3Pal = N[C@@H](Cc1cccnc1)C(=O)O; 2Thi = N[C@@H](Cc1cccs1)C(=O)O; Cha = N[C@@H](CC1CCCCC1)C(=O)O

Tests used:
[1] = molecular target: T1, motilin receptor (rabbit antral smooth muscle membranes) (Oryctolagus cuniculus, UniProt G1T803); assay: Motilin receptor binding affinity: displacement of [125I-Tyr7,Nle13]motilin(porcine); conditions: negative logarithm of concentration displacing 50% of [125I-Tyr7,Nle13]motilin(porcine) from rabbit antral smooth muscle membranes; read-out: pIC50 (converted)
T1 construct: from tissue; host or cells: rabbit antral smooth muscle membranes
T1 sequence (G1T803 1-400): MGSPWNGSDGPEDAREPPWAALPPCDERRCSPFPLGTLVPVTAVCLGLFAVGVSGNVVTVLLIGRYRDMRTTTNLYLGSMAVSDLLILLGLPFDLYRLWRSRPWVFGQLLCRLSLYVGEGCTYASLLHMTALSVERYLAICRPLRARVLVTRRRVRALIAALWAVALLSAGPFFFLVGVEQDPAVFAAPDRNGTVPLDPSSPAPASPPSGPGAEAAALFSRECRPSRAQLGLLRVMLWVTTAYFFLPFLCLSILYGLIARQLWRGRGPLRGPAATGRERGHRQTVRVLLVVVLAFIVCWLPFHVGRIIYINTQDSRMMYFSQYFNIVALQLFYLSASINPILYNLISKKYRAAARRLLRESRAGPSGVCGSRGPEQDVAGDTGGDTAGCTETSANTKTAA
Procedure: The motilin receptor binding affinity of the peptides of this invention was determined by using the general procedure of Bormans, Peelers and Vantrappen, Regul. Pept., 15, 143-153 (1986). The ability of the peptides to displace [^125 I-Tyr^7,Nle^13 ]motilin(porcine) bound to rabbit antral smooth muscle membranes, was determined by testing twice, each time in duplicate, at concentrations ranging from 10^-11 to 10^-4 M. The concentration displacing 50% of the label (IC50) was determined by fitting the data to the equation describing displacement, assuming a single class of motilin receptors to which labeled and non-labeled motilin bind with equal affinity and non-cooperatively. Fitting was performed using the iterative least-squares procedure of the SAS-software package (SAS Institute, Inc., Cary, N.C., U.S.A.). […] The concentration displacing 50% of the label is expressed using its negative logarithm (pIC50).

[2] = molecular target: segments of rabbit duodenum (Oryctolagus cuniculus, UniProt G1T803); assay: Rabbit duodenal smooth muscle strip tissue bath assay (contractile response); type: cell-based; conditions: contractility; negative logarithm of dose giving 50% of maximal response to motilin; compounds tested 10^-11 to 10^-4 M
Sequence of segments of rabbit duodenum (G1T803 1-400): as above
Procedure: The experimental protocol consisted of an equilibration period of 1 hour: a challenge with 10^-4 M acetylcholine followed by a wash-out period; a cumulative dose-response curve of a compound with, at the end, the addition of 10^-7 M motilin; and finally 10^-4 M acetylcholine. If the final response to 10^-4 M acetylcholine differed by more than 5% from the initial response, the results were discarded.

| Molecule | IC50 [1] [nM] | pEC50 [2] |
| --- | --- | --- |
| CC[C@H](C)[C@H](NC(=O)[C@H](Cc1ccccc1)NC(=O)[C@@H](NC(=O)[C@@H](N)Cc1ccccc1)C(C)C)C(=O)N[C@@H](Cc1ccccc1)C(=O)N[C@H](C(=O)N[C@@H](Cc1ccc(O)cc1)C(=O)NCC(=O)N[C@@H](CCC(=O)O)C(=O)N[C@@H](CC(C)C)C(=O)N[C@@H](CCC(N)=O)C(=O)N[C@@H](CCCNC(=N)N)C(=O)N[C@@H](CC(C)C)C(=O)N[C@H](CCC(N)=O)C(N)=O)[C@@H](C)O [H-Phe-Val-Phe-Ile-Phe-Thr-Tyr-Gly-Glu-Leu-Gln-Arg-Leu-D-Gln-NH2] (H-FVFIFTYGELQRL[dQ]-NH2) | 0.977 | < 4.5 |
| CC[C@H](C)[C@H](NC(=O)[C@H](Cc1ccc2ccccc2c1)NC(=O)[C@@H](NC(=O)[C@@H](N)Cc1ccccc1)C(C)C)C(=O)N[C@@H](Cc1ccccc1)C(=O)N[C@H](C(=O)N[C@@H](Cc1ccc(O)cc1)C(=O)NCC(=O)N[C@@H](CCC(=O)O)C(=O)N[C@@H](CC(C)C)C(=O)N[C@@H](CCC(N)=O)C(=O)N[C@@H](CCCNC(=N)N)C(=O)N[C@@H](CC(C)C)C(=O)N[C@@H](CCC(N)=O)C(=O)O)[C@@H](C)O [[2-Nal^3, Leu^13]pMOT(1-14), H-Phe-Val-2-Nal-Ile-Phe-Thr-Tyr-Gly-Glu-Leu-Gln-Arg-Leu-Gln-OH] (H-FV[2Nal]IFTYGELQRLQ-OH) | 27.5 | < 4.5 |
| CC[C@H](C)[C@H](NC(=O)[C@H](Cc1ccccc1)NC(=O)[C@@H](NC(=O)[C@@H](N)CC1CCCCC1)C(C)C)C(=O)N[C@@H](Cc1ccccc1)C(=O)N[C@H](C(=O)N[C@@H](Cc1ccc(O)cc1)C(=O)NCC(=O)N[C@@H](CCC(=O)O)C(=O)N[C@@H](CC(C)C)C(=O)N[C@@H](CCC(N)=O)C(=O)N[C@@H](CCCNC(=N)N)C(=O)N[C@@H](CC(C)C)C(=O)N[C@@H](CCC(N)=O)C(=O)O)[C@@H](C)O [[Cha^1, Phe^3, Leu^13]pMOT(1-14), H-Cha-Val-Phe-Ile-Phe-Thr-Tyr-Gly-Glu-Leu-Gln-Arg-Leu-Gln-OH] (H-[Cha]VFIFTYGELQRLQ-OH) | 29.5 | < 4.5 |
| CC[C@H](C)[C@H](NC(=O)[C@H](CC1CCCCC1)NC(=O)[C@@H](NC(=O)[C@@H](N)Cc1ccccc1)C(C)C)C(=O)N[C@@H](Cc1ccccc1)C(=O)N[C@H](C(=O)N[C@@H](Cc1ccc(O)cc1)C(=O)NCC(=O)N[C@@H](CCC(=O)O)C(=O)N[C@@H](CC(C)C)C(=O)N[C@@H](CCC(N)=O)C(=O)N[C@@H](CCCNC(=N)N)C(=O)N[C@@H](CC(C)C)C(=O)N[C@@H](CCC(N)=O)C(=O)O)[C@@H](C)O [[Cha^3, Leu^13]pMOT(1-14), H-Phe-Val-Cha-Ile-Phe-Thr-Tyr-Gly-Glu-Leu-Gln-Arg-Leu-Gln-OH] (H-FV[Cha]IFTYGELQRLQ-OH) | 20.9 | < 4.5 |
| CC[C@H](C)[C@H](NC(=O)[C@H](Cc1ccccc1)NC(=O)[C@@H](NC(=O)[C@H](N)Cc1ccccc1)C(C)C)C(=O)N[C@@H](Cc1ccccc1)C(=O)N[C@H](C(=O)N[C@@H](Cc1ccc(O)cc1)C(=O)NCC(=O)N[C@@H](CCC(=O)O)C(=O)N[C@@H](CC(C)C)C(=O)N[C@@H](CCC(N)=O)C(=O)N[C@@H](CCCNC(=N)N)C(=O)N[C@@H](CC(C)C)C(=O)N[C@@H](CCC(N)=O)C(=O)O)[C@@H](C)O [[D-Phe^1, Phe^3, Leu^13]pMOT(1-14), H-D-Phe-Val-Phe-Ile-Phe-Thr-Tyr-Gly-Glu-Leu-Gln-Arg-Leu-Gln-OH] (H-[dF]VFIFTYGELQRLQ-OH) | 229 | < 4.5 |
| CC[C@H](C)[C@H](NC(=O)[C@@H](Cc1ccccc1)NC(=O)[C@@H](NC(=O)[C@@H](N)Cc1ccccc1)C(C)C)C(=O)N[C@@H](Cc1ccccc1)C(=O)N[C@H](C(=O)N[C@@H](Cc1ccc(O)cc1)C(=O)NCC(=O)N[C@@H](CCC(=O)O)C(=O)N[C@@H](CC(C)C)C(=O)N[C@@H](CCC(N)=O)C(=O)N[C@@H](CCCNC(=N)N)C(=O)N[C@@H](CC(C)C)C(=O)N[C@@H](CCC(N)=O)C(=O)O)[C@@H](C)O [[D-Phe^3, Leu^13]pMOT(1-14), H-Phe-Val-D-Phe-Ile-Phe-Thr-Tyr-Gly-Glu-Leu-Gln-Arg-Leu-Gln-OH] (H-FV[dF]IFTYGELQRLQ-OH) | 8.13 | < 4.5 |
| CC[C@H](C)[C@H](NC(=O)[C@H](Cc1ccccc1)NC(=O)[C@@H](NC(=O)[C@H](Cc1ccccc1)NC)C(C)C)C(=O)N[C@@H](Cc1ccccc1)C(=O)N[C@H](C(=O)N[C@@H](Cc1ccc(O)cc1)C(=O)NCC(=O)N[C@@H](CCC(=O)O)C(=O)N[C@@H](CC(C)C)C(=O)N[C@@H](CCC(N)=O)C(=O)N[C@@H](CCCNC(=N)N)C(=O)N[C@@H](CC(C)C)C(=O)N[C@@H](CCC(N)=O)C(=O)O)[C@@H](C)O [[N--MePhe^1, Phe^3, Leu^3]pMOT(1-14), [1-N-Methylphenylalanine, 3-phenylalanine, 13-leucine] motilin-(1-14)-peptide (Porcine), Bis-trifluoroacetate Salt] (H-[NMeF]VFIFTYGELQRLQ-OH) | 10.7 | < 4.5 |
| CC[C@H](C)[C@H](NC(=O)[C@H](Cc1cccnc1)NC(=O)[C@@H](NC(=O)[C@@H](N)Cc1ccccc1)C(C)C)C(=O)N[C@@H](Cc1ccccc1)C(=O)N[C@H](C(=O)N[C@@H](Cc1ccc(O)cc1)C(=O)NCC(=O)N[C@@H](CCC(=O)O)C(=O)N[C@@H](CC(C)C)C(=O)N[C@@H](CCC(N)=O)C(=O)N[C@@H](CCCNC(=N)N)C(=O)N[C@@H](CC(C)C)C(=O)N[C@@H](CCC(N)=O)C(=O)O)[C@@H](C)O [[Pal^3, Leu^13]pMOT(1-14), H-Phe-Val-Pal-Ile-Phe-Thr-Tyr-Gly-Glu-Leu-Gln-Arg-Leu-Gln-OH] (H-FV[3Pal]IFTYGELQRLQ-OH) | 158 | < 4.5 |
| CC[C@H](C)[C@H](NC(=O)[C@H](Cc1ccccc1)NC(=O)[C@@H](NC(=O)[C@@H](N)Cc1ccccc1)C(C)C)C(=O)N[C@@H](CC1CCCCC1)C(=O)N[C@H](C(=O)N[C@@H](Cc1ccc(O)cc1)C(=O)NCC(=O)N[C@@H](CCC(=O)O)C(=O)N[C@@H](CC(C)C)C(=O)N[C@@H](CCC(N)=O)C(=O)N[C@@H](CCCNC(=N)N)C(=O)N[C@@H](CC(C)C)C(=O)N[C@@H](CCC(N)=O)C(=O)O)[C@@H](C)O [[Phe^3, Cha^5, Leu^13]pMOT(1-14), H-Phe-Val-Phe-Ile-Cha-Thr-Tyr-Gly-Glu-Leu-Gln-Arg-Leu-Gln-OH] (H-FVFI[Cha]TYGELQRLQ-OH) | 25.1 | < 4.5 |
| CC[C@H](C)[C@H](NC(=O)[C@H](Cc1ccccc1)NC(=O)[C@@H](NC(=O)[C@@H](N)Cc1ccccc1)C(C)C)C(=O)N[C@@H](Cc1ccccc1)C(=O)N[C@H](C(=O)N[C@@H](Cc1ccc(O)cc1)C(=O)N[C@H](C)C(=O)N[C@@H](CCC(=O)O)C(=O)N[C@@H](CC(C)C)C(=O)N[C@@H](CCC(N)=O)C(=O)N[C@@H](CCCNC(=N)N)C(=O)N[C@@H](CC(C)C)C(=O)N[C@@H](CCC(N)=O)C(=O)O)[C@@H](C)O [[Phe^3, D-Ala^8, Leu^13]pMOT(1-14), H-Phe-Val-Phe-Ile-Phe-Thr-Tyr-D-Ala-Glu-Leu-Gln-Arg-Leu-Gln-OH] (H-FVFIFTY[dA]ELQRLQ-OH) | 49 | < 4.5 |
| CC[C@H](C)[C@H](NC(=O)[C@H](Cc1ccccc1)NC(=O)[C@@H](NC(=O)[C@@H](N)Cc1ccccc1)C(C)C)C(=O)N[C@@H](Cc1ccccc1)C(=O)N[C@H](C(=O)N[C@@H](Cc1ccc(O)cc1)C(=O)NCC(=O)N[C@@H](CCC(=O)O)C(=O)N[C@@H](CC(C)C)C(=O)N[C@@H](CCC(N)=O)C(=O)N[C@H](CCCNC(=N)N)C(=O)N[C@@H](CC(C)C)C(=O)N[C@@H](CCC(N)=O)C(=O)O)[C@@H](C)O [[Phe^3, D-Arg^12, Leu^13]pMOT(1-14)] (H-FVFIFTYGELQ[dR]LQ-OH) | 81.3 | < 4.5 |
| CC[C@H](C)[C@H](NC(=O)[C@H](Cc1cccs1)NC(=O)[C@@H](NC(=O)[C@@H](N)Cc1ccccc1)C(C)C)C(=O)N[C@@H](Cc1ccccc1)C(=O)N[C@H](C(=O)N[C@@H](Cc1ccc(O)cc1)C(=O)NCC(=O)N[C@@H](CCC(=O)O)C(=O)N[C@@H](CC(C)C)C(=O)N[C@@H](CCC(N)=O)C(=O)N[C@@H](CCCNC(=N)N)C(=O)N[C@@H](CC(C)C)C(=O)N[C@@H](CCC(N)=O)C(=O)O)[C@@H](C)O [[Thi^3, Leu^13]pMOT(1-14), H-Phe-Val-Thi-Ile-Phe-Thr-Tyr-Gly-Glu-Leu-Gln-Arg-Leu-Gln-OH] (H-FV[2Thi]IFTYGELQRLQ-OH) | 25.7 | < 4.5 |
| CC[C@H](C)[C@H](NC(=O)[C@H](Cc1ccc(I)cc1)NC(=O)[C@@H](NC(=O)[C@@H](N)Cc1ccccc1)C(C)C)C(=O)N[C@@H](Cc1ccccc1)C(=O)N[C@H](C(=O)N[C@@H](Cc1ccc(O)cc1)C(=O)NCC(=O)N[C@@H](CCC(=O)O)C(=O)N[C@@H](CC(C)C)C(=O)N[C@@H](CCC(N)=O)C(=O)N[C@@H](CCCNC(=N)N)C(=O)N[C@@H](CC(C)C)C(=O)N[C@@H](CCC(N)=O)C(=O)O)[C@@H](C)O [[p-I-Phe^3, Leu^13]pMOT(1-14), H-Phe-Val-p-L-Phe-Ile-Phe-Thr-Tyr-Gly-Glu-Leu-Gln-Arg-Leu-Gln-OH] (H-FV[Phe(4-I)]IFTYGELQRLQ-OH) | 43.7 | < 4.5 |
| FVFIFTYGELQR-NH2 [[Phe^3 pMOT(1-12) amide, [3-Phenylalanine]motilin-(1-12)-peptide Amide (Porcine), Bis-trifluoroacetate Salt] | 27.5 | < 4.5 |
